Assay results published in patent US20260092071A1, “COMPOUNDS AND COMPOSITIONS AS SMARCA2/4 DEGRADERS AND USES THEREOF” (REGENTS OF THE UNIVERSITY OF MICHIGAN, priority 2022, published 2026).
Where two headings read alike, the source gives them in different places.

Legend:
SMARCA2 = SMARCA2 (Homo sapiens, UniProt P51531); assay: HiBit assay in engineered HT1080 CRISPR knock-in cell, 6 hrs (B series), SMARCA2; assay type: cell-based; settings: 6 hrs incubation; for DC50: HT1080 CRISPR knock-in cells, read-out: SMARC A2 HT1080 HiBit DC50; for Dmax: HT-1080, HT1080 CRISPR knock-in cells, read-out: SMARC A2 HT1080 HiBit Dmax (%)
SMARCA2, sequence (P51531 whole entry): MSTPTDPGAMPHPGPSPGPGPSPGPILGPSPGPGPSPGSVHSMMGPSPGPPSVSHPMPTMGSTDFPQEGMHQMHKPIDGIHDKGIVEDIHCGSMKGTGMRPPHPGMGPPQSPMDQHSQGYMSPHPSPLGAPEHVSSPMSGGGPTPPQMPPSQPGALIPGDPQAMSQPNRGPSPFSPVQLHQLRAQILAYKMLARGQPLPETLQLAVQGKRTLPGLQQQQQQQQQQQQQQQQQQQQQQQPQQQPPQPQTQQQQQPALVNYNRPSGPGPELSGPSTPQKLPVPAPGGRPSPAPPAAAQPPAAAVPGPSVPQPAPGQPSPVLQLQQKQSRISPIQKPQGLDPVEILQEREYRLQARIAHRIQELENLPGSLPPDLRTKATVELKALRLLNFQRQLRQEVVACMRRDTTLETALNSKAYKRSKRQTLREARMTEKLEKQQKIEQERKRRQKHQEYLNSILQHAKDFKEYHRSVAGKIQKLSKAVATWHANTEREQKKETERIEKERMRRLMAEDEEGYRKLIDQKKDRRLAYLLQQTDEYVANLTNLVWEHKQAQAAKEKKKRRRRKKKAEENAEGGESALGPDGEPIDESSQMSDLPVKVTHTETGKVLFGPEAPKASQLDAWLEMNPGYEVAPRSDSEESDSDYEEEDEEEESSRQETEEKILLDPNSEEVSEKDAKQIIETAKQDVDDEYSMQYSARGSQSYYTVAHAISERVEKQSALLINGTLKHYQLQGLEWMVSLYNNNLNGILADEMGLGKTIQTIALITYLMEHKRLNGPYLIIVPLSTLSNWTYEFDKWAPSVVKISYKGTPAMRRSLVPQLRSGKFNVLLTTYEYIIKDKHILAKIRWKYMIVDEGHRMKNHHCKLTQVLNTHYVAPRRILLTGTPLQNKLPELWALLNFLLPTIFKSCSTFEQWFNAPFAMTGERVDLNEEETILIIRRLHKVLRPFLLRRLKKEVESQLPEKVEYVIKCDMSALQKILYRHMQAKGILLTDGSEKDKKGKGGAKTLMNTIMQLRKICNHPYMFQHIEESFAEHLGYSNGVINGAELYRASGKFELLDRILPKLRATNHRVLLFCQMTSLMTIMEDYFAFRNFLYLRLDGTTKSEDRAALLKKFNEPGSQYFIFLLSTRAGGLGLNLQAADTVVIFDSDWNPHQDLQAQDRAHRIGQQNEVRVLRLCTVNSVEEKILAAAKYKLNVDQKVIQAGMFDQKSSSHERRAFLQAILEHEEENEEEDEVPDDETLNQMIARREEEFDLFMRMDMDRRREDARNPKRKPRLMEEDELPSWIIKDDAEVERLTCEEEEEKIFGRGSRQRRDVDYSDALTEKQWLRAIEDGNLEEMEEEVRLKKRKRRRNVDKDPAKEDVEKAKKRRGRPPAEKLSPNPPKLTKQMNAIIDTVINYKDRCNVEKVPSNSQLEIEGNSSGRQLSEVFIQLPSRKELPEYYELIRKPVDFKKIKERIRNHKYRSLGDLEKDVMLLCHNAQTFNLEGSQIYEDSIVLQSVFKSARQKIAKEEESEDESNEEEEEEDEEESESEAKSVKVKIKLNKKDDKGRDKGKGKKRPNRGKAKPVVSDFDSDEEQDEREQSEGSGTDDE
Summary of the method: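 Remaining SMARCA2 protein measured as HiBiT luminescence after cell lysis with LgBiT plus lytic substrate. Engineered HT1080 knock-in cells (2000/well) were first treated 6 h at 37 °C with compound at a final 0.1% DMSO.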

SMARCA4 = SMARCA4 (Homo sapiens, UniProt P51532); assay: HiBit assay in engineered HT1080 CRISPR knock-in cell, 6 hrs (B series), SMARCA4; assay type: cell-based; settings: for DC50: HT1080 CRISPR knock-in cells, read-out: SMARC A4 HT1080 HiBit DC50
SMARCA4, sequence (P51532 whole entry): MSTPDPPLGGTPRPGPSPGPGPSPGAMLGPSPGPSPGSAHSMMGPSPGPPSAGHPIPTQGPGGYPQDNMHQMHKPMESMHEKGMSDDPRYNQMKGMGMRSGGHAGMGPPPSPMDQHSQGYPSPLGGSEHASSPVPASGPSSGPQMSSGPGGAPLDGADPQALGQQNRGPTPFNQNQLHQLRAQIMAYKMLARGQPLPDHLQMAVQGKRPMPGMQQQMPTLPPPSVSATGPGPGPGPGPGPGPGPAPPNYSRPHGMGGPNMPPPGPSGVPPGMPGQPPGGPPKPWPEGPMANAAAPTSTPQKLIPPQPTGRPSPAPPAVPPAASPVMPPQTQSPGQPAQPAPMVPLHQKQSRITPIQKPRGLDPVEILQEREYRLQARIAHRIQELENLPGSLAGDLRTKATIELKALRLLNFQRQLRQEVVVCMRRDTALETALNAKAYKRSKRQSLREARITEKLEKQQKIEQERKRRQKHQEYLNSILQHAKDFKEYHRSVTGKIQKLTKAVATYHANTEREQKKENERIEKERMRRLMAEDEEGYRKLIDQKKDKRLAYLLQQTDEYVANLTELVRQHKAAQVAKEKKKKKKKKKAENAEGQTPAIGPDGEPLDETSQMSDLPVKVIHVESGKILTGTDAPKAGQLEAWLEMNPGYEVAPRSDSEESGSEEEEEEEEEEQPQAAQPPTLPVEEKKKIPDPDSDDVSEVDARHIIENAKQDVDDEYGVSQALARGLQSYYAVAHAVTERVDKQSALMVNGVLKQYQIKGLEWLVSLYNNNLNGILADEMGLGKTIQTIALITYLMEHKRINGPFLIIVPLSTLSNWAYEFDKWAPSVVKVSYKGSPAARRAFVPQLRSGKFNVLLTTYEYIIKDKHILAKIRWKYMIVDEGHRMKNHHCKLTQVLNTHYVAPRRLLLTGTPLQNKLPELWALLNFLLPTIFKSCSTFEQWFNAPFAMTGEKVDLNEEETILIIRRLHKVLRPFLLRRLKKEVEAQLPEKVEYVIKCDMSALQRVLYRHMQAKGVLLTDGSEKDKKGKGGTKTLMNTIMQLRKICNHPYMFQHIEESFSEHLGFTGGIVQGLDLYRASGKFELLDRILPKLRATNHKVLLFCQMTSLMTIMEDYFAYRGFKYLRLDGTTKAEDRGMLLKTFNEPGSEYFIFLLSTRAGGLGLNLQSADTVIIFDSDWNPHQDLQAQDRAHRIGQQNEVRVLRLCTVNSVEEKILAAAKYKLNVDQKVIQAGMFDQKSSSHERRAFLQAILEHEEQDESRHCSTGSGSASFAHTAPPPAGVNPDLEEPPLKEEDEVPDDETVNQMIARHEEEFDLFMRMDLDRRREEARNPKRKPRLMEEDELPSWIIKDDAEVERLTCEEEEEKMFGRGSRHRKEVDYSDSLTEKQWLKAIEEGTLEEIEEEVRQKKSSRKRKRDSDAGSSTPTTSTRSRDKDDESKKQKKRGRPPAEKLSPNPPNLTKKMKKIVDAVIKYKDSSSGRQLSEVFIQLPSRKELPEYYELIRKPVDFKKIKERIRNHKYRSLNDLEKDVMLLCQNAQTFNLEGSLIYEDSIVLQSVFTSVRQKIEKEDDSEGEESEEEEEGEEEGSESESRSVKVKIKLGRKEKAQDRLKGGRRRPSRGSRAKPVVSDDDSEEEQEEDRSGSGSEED
Summary of the method: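 Engineered HT1080 knock-in cells, 2000 cells/well, 6 hrs compound exposure, 37° C/5% CO2, 0.1% DMSO final. Lytic detection: LgBiT 1:100 plus HiBiT substrate 1:50 in lytic buffer, 10 min shake at RT, luminescence read.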

[1] = HT-1080, HT1080 CRISPR knock-in cells, 6 hrs incubation, read-out: SMARC A4 HT1080 HiBit Dmax(%)

Compound: Cc1ncsc1-c1ccc([C@H](C)NC(=O)[C@@H]2C[C@@H](O)CN2C(=O)[C@@H](NC(=O)[C@H]2CC[C@H](CN3CCC(c4ccc5c(c4)-n4c(nc(=O)c6c(Br)cccc64)C5(C)C)CC3)CC2)C(C)(C)C)cc1 [Compound B70, (2S,4R)-1-((S)-2-((11,4S)-4-((4-(4-bromo-7,7-dimethyl-5-oxo-5,7-dihydroindolo[1,2-a]quinazolin-10-yl)piperidin-1-yl)methyl)cyclohexane-1-carboxamido)-3,3-dimethylbutanoyl)-4-hydroxy-N-((S)-1-(4-(4-methylthiazol-5-yl)phenyl)ethyl)pyrrolidine-2-carboxamide]
- DC50 (SMARCA2): < 100 nM
- Dmax (SMARCA2): > 90%
- DC50 (SMARCA4; 6 hrs incubation): < 100 nM
- Dmax (SMARCA4; [1]): < 50%

Compound: CNC(=O)[C@@H]1C[C@@H](O)CN1C(=O)[C@H](C(C)C)n1cc([C@H]2CC[C@H](CN3CCC(c4ccc5c(c4)-n4c(nc(=O)c6c(Cl)cccc64)C5(C)C)CC3)CC2)nn1 [Compound B59, (2S,4R)-1-((S)-2-(4-((1r,4S)-4-((4-(4-chloro-7,7-dimethyl-5-oxo-5,7-dihydroindolo[1,2-a]quinazolin-10-yl)piperidin-1-yl)methyl)cyclohexyl)-1H-1,2,3-triazol-1-yl)-3-methylbutanoyl)-4-hydroxy-N-methylpyrrolidine-2-carboxamide]
- DC50 (SMARCA2): 100 to 500 nM
- Dmax (SMARCA2): 50 to 69%
- DC50 (SMARCA4; 6 hrs incubation): > 1000 nM
- Dmax (SMARCA4; [1]): < 50%

Compound: Cc1ncsc1-c1ccc(CNC(=O)[C@@H]2C[C@@H](O)CN2C(=O)[C@@H](NC(=O)C2(F)CC2)C(C)(C)C)c(OCCCN2CCC(c3ccc4c(c3)-n3c(nc(=O)c5c(Cl)cccc53)C4(C)C)CC2)c1 [Compound B39, (2S,4R)-N-(2-(3-(4-(4-chloro-7,7-dimethyl-5-oxo-5,7-dihydroindolo[1,2-a]quinazolin-10-yl)piperidin-1-yl)propoxy)-4-(4-methylthiazol-5-yl)benzyl)-1-((S)-2-(1-fluorocyclopropane-1-carboxamido)-3,3-dimethylbutanoyl)-4-hydroxypyrrolidine-2-carboxamide]
- DC50 (SMARCA2): < 100 nM
- Dmax (SMARCA2): > 90%
- DC50 (SMARCA4; 6 hrs incubation): < 100 nM
- Dmax (SMARCA4; [1]): > 90%

Compound: Cc1ncsc1-c1ccc([C@H](CCCCCn2cc(-c3ccc4c(c3)-n3c(nc(=O)c5c(Cl)cccc53)C4(C)C)cn2)NC(=O)[C@@H]2C[C@@H](O)CN2C(=O)[C@@H](NC(=O)C2(F)CC2)C(C)(C)C)cc1 [Compound B46, (2S,4R)-N-((S)-6-(4-(4-chloro-7,7-dimethyl-5-oxo-5,7-dihydroindolo[1,2-a]quinazolin-10-yl)-1H-pyrazol-1-yl)-1-(4-(4-methylthiazol-5-yl)phenyl)hexyl)-1-((S)-2-(1-fluorocyclopropane-1-carboxamido)-3,3-dimethylbutanoyl)-4-hydroxypyrrolidine-2-carboxamide]
- DC50 (SMARCA2): < 100 nM
- Dmax (SMARCA2): 70 to 90%
- DC50 (SMARCA4; 6 hrs incubation): < 100 nM
- Dmax (SMARCA4; [1]): 70 to 90%

Compound: Cc1ncsc1-c1ccc([C@H](C)NC(=O)[C@@H]2C[C@@H](O)CN2C(=O)[C@@H](n2cc([C@H]3CC[C@H](CN4CCC(c5ccc6c(c5)-n5c(nc(=O)c7c(Cl)cccc75)C6(C)C)CC4)CC3)nn2)C(C)(C)C)cc1 [Compound B51, (2S,4R)-1-((S)-2-(4-((1r,4S)-4-((4-(4-chloro-7,7-dimethyl-5-oxo-5,7-dihydroindolo[1,2-a]quinazolin-10-yl)piperidin-1-yl)methyl)cyclohexyl)-1H-1,2,3-triazol-1-yl)-3,3-dimethylbutanoyl)-4-hydroxy-N-((S)-1-(4-(4-methylthiazol-5-yl)phenyl)ethyl)pyrrolidine-2-carboxamide]
- DC50 (SMARCA2): < 100 nM
- Dmax (SMARCA2): > 90%
- DC50 (SMARCA4; 6 hrs incubation): < 100 nM
- Dmax (SMARCA4; [1]): 70 to 90%

Compound: Cc1cc(C(C(=O)N2C[C@H](O)C[C@H]2C(=O)N[C@@H](CN2CCC(c3cccc4c3C(C)(C)c3nc(=O)c5c(Cl)cccc5n3-4)CC2)c2ccc(-c3scnc3C)cc2)C(C)C)on1 (stereo partly drawn) [Compound B153, (2S,4R)-N-((R)-2-(4-(4-chloro-7,7-dimethyl-5-oxo-5,7-dihydroindolo[1,2-a]quinazolin-8-yl)piperidin-1-yl)-1-(4-(4-methylthiazol-5-yl)phenyl)ethyl)-4-hydroxy-1-(3-methyl-2-(3-methylisoxazol-5-yl)butanoyl)pyrrolidine-2-carboxamide]
- DC50 (SMARCA2): < 100 nM
- Dmax (SMARCA2): 70 to 90%
- DC50 (SMARCA4; 6 hrs incubation): < 100 nM
- Dmax (SMARCA4; [1]): 70 to 90%

Compound: Cc1ncsc1-c1ccc([C@H](C)NC(=O)[C@@H]2C[C@@H](O)CN2C(=O)[C@H](C(C)C)n2cc(OCCN3CCC(c4ccc5c(c4)C(C)(C)c4nc(=O)c6c(Cl)cccc6n4-5)CC3)cn2)cc1 [Compound B57, (2S,4R)-1-(2-(4-(2-(4-(4-chloro-7,7-dimethyl-5-oxo-5,7-dihydroindolo[1,2-a]quinazolin-9-yl)piperidin-1-yl)ethoxy)-1H-pyrazol-1-yl)-3-methylbutanoyl)-4-hydroxy-N—((S)-1-(4-(4-methylthiazol-5-yl)phenyl)ethyl)pyrrolidine-2-carboxamide]
- DC50 (SMARCA2): 100 to 500 nM
- Dmax (SMARCA2): 70 to 90%
- DC50 (SMARCA4; 6 hrs incubation): 501 to 1000 nM
- Dmax (SMARCA4; [1]): < 50%

Compound: Cc1cc(C(C(=O)N2C[C@H](O)C[C@H]2C(=O)N[C@@H](C)c2ccc(-c3scnc3C#CCOCCCN3CCC(c4ccc5c(c4)-n4c(nc(=O)c6c(Cl)cccc64)C5(C)C)CC3)cc2)C(C)C)on1 (stereo partly drawn) [Compound B103, (2S,4R)-N-((S)-1-(4-(4-(3-(3-(4-(4-chloro-7,7-dimethyl-5-oxo-5,7-dihydroindolo[1,2-a]quinazolin-10-yl)piperidin-1-yl)propoxy)prop-1-yn-1-yl)thiazol-5-yl)phenyl)ethyl)-4-hydroxy-1-(3-methyl-2-(3-methylisoxazol-5-yl)butanoyl)pyrrolidine-2-carboxamide]
- DC50 (SMARCA2): < 100 nM
- Dmax (SMARCA2): > 90%
- DC50 (SMARCA4; 6 hrs incubation): < 100 nM
- Dmax (SMARCA4; [1]): > 90%

Compound: C[C@H](NC(=O)[C@@H]1C[C@@H](O)CN1C(=O)[C@@H](n1cc([C@H]2CC[C@H](CN3CCN(c4ccc5c(c4)-n4c(nc(=O)c6c(Cl)cccc64)C5(C)C)CC3)CC2)nn1)C(C)(C)C)c1ccc(-c2ccn[nH]2)cc1 [Compound B127, (2S,4R)-N-((S)-1-(4-(1H-pyrazol-5-yl)phenyl)ethyl)-1-((S)-2-(4-((1r,4S)-4-((4-(4-chloro-7,7-dimethyl-5-oxo-5,7-dihydroindolo[1,2-a]quinazolin-10-yl)piperazin-1-yl)methyl)cyclohexyl)-1H-1,2,3-triazol-1-yl)-3,3-dimethylbutanoyl)-4-hydroxypyrrolidine-2-carboxamide]
- DC50 (SMARCA2): < 100 nM
- Dmax (SMARCA2): > 90%
- DC50 (SMARCA4; 6 hrs incubation): < 100 nM
- Dmax (SMARCA4; [1]): 70 to 90%

Compound: Cc1cc(C(C(=O)N2C[C@H](O)C[C@H]2C(=O)N[C@@H](CN2CCC(CN3CCC(c4cccc5c4C(C)(C)c4nc(=O)c6c(Cl)cccc6n4-5)CC3)CC2)c2ccc(-c3scnc3C)cc2)C(C)C)on1 (stereo partly drawn) [Compound B139, (2S,4R)—N—((R)-2-(4-((4-(4-chloro-7,7-dimethyl-5-oxo-5,7-dihydroindolo[1,2-a]quinazolin-8-yl)piperidin-1-yl)methyl)piperidin-1-yl)-1-(4-(4-methylthiazol-5-yl)phenyl)ethyl)-4-hydroxy-1-(3-methyl-2-(3-methylisoxazol-5-yl)butanoyl)pyrrolidine-2-carboxamide]
- DC50 (SMARCA2): < 100 nM
- Dmax (SMARCA2): > 90%
- DC50 (SMARCA4; 6 hrs incubation): < 100 nM
- Dmax (SMARCA4; [1]): 70 to 90%

Compound: Cc1ncsc1-c1ccc([C@H](C)NC(=O)[C@@H]2C[C@@H](O)CN2C(=O)[C@@H](c2cc(N3CCC(CN4CCC(c5cccc6c5C(C)(C)c5nc(=O)c7c(Cl)cccc7n5-6)CC4)CC3)no2)C(C)C)cc1 [Compound B10, (2S,4R)-1-((R)-2-(3-(4-((4-(4-chloro-7,7-dimethyl-5-oxo-5,7-dihydroindolo[1,2-a]quinazolin-8-yl)piperidin-1-yl)methyl)piperidin-1-yl)isoxazol-5-yl)-3-methylbutanoyl)-4-hydroxy-N—((S)-1-(4-(4-methylthiazol-5-yl)phenyl)ethyl)pyrrolidine-2-carboxamide]
- DC50 (SMARCA2): < 100 nM
- Dmax (SMARCA2): > 90%
- DC50 (SMARCA4; 6 hrs incubation): < 100 nM
- Dmax (SMARCA4; [1]): 70 to 90%

Compound: Cc1ncsc1-c1ccc([C@H](CN2CCOCC2)NC(=O)[C@@H]2C[C@@H](O)CN2C(=O)[C@@H](c2cc(O[C@H]3CC[C@H](CN4CCC(c5ccc6c(c5)-n5c(nc(=O)c7c(Cl)cccc75)C6(C)C)CC4)CC3)no2)C(C)C)cc1 [Compound B157, (2S,4R)-1-((R)-2-(3-(((1r,4R)-4-((4-(4-chloro-7,7-dimethyl-5-oxo-5,7-dihydroindolo[1,2-a]quinazolin-10-yl)piperidin-1-yl)methyl)cyclohexyl)oxy)isoxazol-5-yl)-3-methylbutanoyl)-4-hydroxy-N-((R)-1-(4-(4-methylthiazol-5-yl)phenyl)-2-morpholinoethyl)pyrrolidine-2-carboxamide]
- DC50 (SMARCA2): < 100 nM
- Dmax (SMARCA2): > 90%
- DC50 (SMARCA4; 6 hrs incubation): < 100 nM
- Dmax (SMARCA4; HT-1080, read-out: SMARC A4 HT1080 HiBit Dmax(%), HT1080 CRISPR knock-in cells, 6 hrs incubation): > 90%

Compound: Cc1ncsc1-c1ccc([C@H](C)NC(=O)[C@@H]2C[C@@H](O)CN2C(=O)[C@@H](NC(=O)C2CCC(CN3CCC(c4ccc5c(c4)C(C)(C(F)(F)F)c4nc(=O)c6c(Cl)cccc6n4-5)CC3)CC2)C(C)(C)C)cc1 (stereo partly drawn) [Compound B76, (2S,4R)-1-((2S)-2-((1r,4S)-4-((4-(4-chloro-7-methyl-5-oxo-7-(trifluoromethyl)-5,7-dihydroindolo[1,2-a]quinazolin-9-yl)piperidin-1-yl)methyl)cyclohexane-1-carboxamido)-3,3-dimethylbutanoyl)-4-hydroxy-N-((S)-1-(4-(4-methylthiazol-5-yl)phenyl)ethyl)pyrrolidine-2-carboxamide]
- DC50 (SMARCA2): 100 to 500 nM
- Dmax (SMARCA2): 70 to 90%
- DC50 (SMARCA4; 6 hrs incubation): 100 to 500 nM
- Dmax (SMARCA4; [1]): < 50%
